One test deals with T1, PI3Kβ (Homo sapiens, UniProt P42338).
T1 construct: purchased Millipore 14-603-K
Description: In vitro kinase activity (LabChip EZ Reader mobility shift), PI3Kβ. Type of test: biochemical. Particulars: kinase subtype PI3Kβ (p110β). On the procedure: (§1) Compounds: the compounds prepared in above examples of the present invention, each of which was prepared to a concentration of 10 mM in DMSO and diluted to […], 100 nM, 10 nM, 1 nM, 0.1 nM, 0.01 nM successively.
(§2) Reagents: PI3Kα (p110α(p85a), purchased from Invitrogen, Cat.No. PV4788; PIK3Cδ (p110δ/p85a), purchased from Millipore, Cat.No. 14-604-K; PIK3Cβ (p110β), purchased from Millipore, Cat.No. 14-603-K; PIK3Cγ (pp110γ), purchased from Invitrogen, Cat.No. PR8641C; DMSO, purchased from Sigma; EDTA, purchased from Sigma; 1× kinase buffer (50 mM HEPES, pH 7.5, 0.0015% Brij-35, 10 mM MgCl2, 2 mM DTT), which was prepared before use; termination solution (100 mM HEPES, pH 7.5, 0.015% Brij-35, 0.2% Coating Reagent#3, 50 mM EDTA), which was prepared before use.
(§3) Instruments: LabChip EZ Reader purchased from Caliper, USA.
(§4) 2.1 10 μl solution of each concentration of each compound was placed into 96-well plate and 90 μl of 1× kinase buffer was added. DMSO control group and control group without kinase activity were set up, which all contained 10 μl DMSO and 90 μl of 1× kinase buffer. Each group was mixed well at room temperature for 10 min, and then 5 μl of each group was transferred to a 384-well plate.
(§5) 2.2 Kinases were dissolved in 1× kinase buffer to prepare a 2.5× kinase solution. 10 μl of 2.5× kinase solution was transferred to the 384-well plate containing compounds of different concentrations. 10 μl of 2.5× kinase solution was added to DMSO control group and 10 μl of 1× kinase buffer without kinase was added to control group without kinase activity. The plate was incubated at room temperature for 10 min.
(§6) 2.3 ATP and the polypeptide labeled with FAM were dissolved in 1× kinase buffer to prepare 2.5× substrate solution. Then 10 μl of 2.5× substrate solution was transferred to the 384-well plate and incubated at 28° C. for 1 h.
(§7) 2.4 25 μl of termination solution was added to each well to terminate the reaction.
(§8) 2.5 The plate was placed on the LabChip EZ Reader to read the data of conversion rate and inhibitory rate (1%) was calculated according to formula: I %=(Max−Com)/(Max−Min)×100, wherein Max was the conversion rate of DMSO control group, Min was the conversion rate of control group without kinase activity, Com was the conversion rate of compound treatment group. IC50 was fitted by XLfit processing of the data.

In a further test the test system is SU-DHL-5 lymphoma cells. Description: In vitro cell activity, CellTiter-Glo cell viability, SU-DHL-5. Type of test: cell-based. Particulars: Homo sapiens, SU-DHL-5 lymphoma cell line, 72 h. As for the experimental part: Compounds: the compounds prepared in above examples of the present invention, each of which was prepared to a concentration of 10 mM in DMSO and diluted 3 times to 20000.00 nM, 6666.67 nM, 2222.22 nM, 740.74 nM, 246.91 nM, 27.43 nM, 9.14 nM, 3.05 nM successively.
The lymphoma cell lines SU-DHL-5 and SU-DHL-6 were purchased from the American Type Culture Collection (ATCC).
Reagents: PRMI-1640, purchased from Invitrogen (USA); FBS, purchased from Invitrogen (USA); EDTA, purchased from Sigma (USA); CellTiter-Glo® Luminescent Cell Viability Assay Kit, purchased from Progema (USA); Backseal membrane, purchased from Perkin Elmer (USA).
The cells were thawed in a 37° C. water bath and then transferred to 15 ml preheated medium. The cells were centrifuged at 1000 rpm for 5 min and the medium was discarded. The cells were resuspended in 15 ml fresh medium and transferred to T75 culture flask and incubated in an incubator at 37° C. with 5% CO2. The medium was replaced with fresh medium 24 h later.
The resuscitated cells above were transferred to a 50 ml sterile centrifuge tube and centrifuged at 1000 rpm for 5 min. The medium was discarded, and the cells were dispersed uniformly and counted. The appropriate cell concentration was adjusted in 15 ml fresh medium and added to T75 culture flask. The flask was incubated in an incubator at 37° C. with 5% CO2.
When the cells in the T75 culture flask grew to 1×10^5˜1×10^6 cells/ml, the cells were resuspended with fresh medium (RPMI-1640+20% FBS) and counted. The resuspended cells were adjusted to the following eight concentrations: 1×10^4 cells/ml, 2×10^4 cells/ml, 3×10^4 cells/ml, 5×10^4 cells/ml, 8×10^4 cells/ml, 1×10^5 cells/ml, 1.5×10^5 cells/ml, and 2×10^5 cells/ml. The above cell suspensions were added to 96-well cell culture plate, 100 μl each well (1×10^3 cells/ml, 2×10^3 cells/ml, 3×10^3 cells/ml, 5×10^3 cells/ml, 8×10^3 cells/ml, 1×10^4 cells/ml, 1.5×10^4 cells/ml, and 2×10^4 cells/ml, respectively). Each concentration was done double in three plates. 72 h later, 100 μl CellTiter-Glo® Luminescent Cell Viability Assay buffer was added to test wells and shaken gently. 10 min later, the Assay plate was attached at the bottom by Backseal membrane and placed on Envison to detect the fluorescence reading. Cell survive (%) was calculated according to the formula: cell survive (%)=(Com−Min)/(Max−Min), wherein Max was the reading of solvent control group, Min was the reading of control group without cells, and Com was the reading of compound treatment group.
In general terms: Cellular ATP, detected with luciferase, serves as a proxy for viable cell number.

The target in another test is T2, PI3Kα (Homo sapiens, UniProt P42336).
T2 construct: purchased Invitrogen PV4788
T2 sequence (P42336 whole entry): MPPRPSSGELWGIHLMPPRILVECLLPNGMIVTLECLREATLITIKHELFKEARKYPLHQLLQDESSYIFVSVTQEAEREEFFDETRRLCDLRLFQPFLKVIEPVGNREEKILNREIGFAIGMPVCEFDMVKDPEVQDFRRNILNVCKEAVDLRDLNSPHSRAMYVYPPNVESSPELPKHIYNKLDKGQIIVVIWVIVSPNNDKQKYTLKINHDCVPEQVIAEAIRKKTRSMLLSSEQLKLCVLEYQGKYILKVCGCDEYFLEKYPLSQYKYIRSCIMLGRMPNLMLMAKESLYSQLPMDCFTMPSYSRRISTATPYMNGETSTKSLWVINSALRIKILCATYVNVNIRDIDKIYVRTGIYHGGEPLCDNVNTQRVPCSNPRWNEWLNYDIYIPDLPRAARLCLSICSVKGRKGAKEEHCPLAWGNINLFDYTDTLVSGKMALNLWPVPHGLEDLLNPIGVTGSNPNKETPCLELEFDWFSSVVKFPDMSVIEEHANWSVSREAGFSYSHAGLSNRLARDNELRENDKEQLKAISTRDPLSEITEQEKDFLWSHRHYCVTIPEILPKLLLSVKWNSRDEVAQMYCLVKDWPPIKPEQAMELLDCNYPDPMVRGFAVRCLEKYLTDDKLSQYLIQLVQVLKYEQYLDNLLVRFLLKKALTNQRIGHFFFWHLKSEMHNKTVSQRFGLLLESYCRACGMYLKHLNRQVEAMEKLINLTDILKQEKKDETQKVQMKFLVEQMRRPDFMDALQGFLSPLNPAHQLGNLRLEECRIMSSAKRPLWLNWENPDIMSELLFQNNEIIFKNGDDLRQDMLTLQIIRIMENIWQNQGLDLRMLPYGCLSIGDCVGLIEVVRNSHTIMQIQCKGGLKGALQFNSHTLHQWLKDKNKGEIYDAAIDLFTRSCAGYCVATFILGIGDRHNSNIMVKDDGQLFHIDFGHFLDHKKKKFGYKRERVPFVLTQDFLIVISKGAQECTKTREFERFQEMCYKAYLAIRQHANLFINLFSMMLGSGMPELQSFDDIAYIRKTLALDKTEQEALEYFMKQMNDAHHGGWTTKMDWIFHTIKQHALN
T2 sequence (P27986 whole entry partner): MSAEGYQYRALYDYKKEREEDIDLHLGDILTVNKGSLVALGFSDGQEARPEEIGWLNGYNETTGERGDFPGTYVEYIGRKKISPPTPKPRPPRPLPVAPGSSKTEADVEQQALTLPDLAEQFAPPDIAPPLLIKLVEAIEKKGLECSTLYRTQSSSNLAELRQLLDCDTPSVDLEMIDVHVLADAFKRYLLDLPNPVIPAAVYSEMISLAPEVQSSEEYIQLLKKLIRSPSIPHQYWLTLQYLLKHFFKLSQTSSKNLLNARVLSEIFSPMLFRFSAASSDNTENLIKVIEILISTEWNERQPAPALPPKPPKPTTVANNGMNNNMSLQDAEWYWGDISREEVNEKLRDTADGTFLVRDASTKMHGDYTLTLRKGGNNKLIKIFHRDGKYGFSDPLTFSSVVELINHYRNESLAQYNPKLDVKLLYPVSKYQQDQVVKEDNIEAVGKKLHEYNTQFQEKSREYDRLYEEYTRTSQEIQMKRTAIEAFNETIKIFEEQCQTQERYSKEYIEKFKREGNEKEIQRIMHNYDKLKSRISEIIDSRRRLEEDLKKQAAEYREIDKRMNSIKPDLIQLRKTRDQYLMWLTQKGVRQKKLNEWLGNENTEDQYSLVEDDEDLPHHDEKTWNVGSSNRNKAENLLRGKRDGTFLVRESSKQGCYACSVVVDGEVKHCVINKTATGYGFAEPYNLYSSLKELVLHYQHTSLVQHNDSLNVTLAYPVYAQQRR
Description: In vitro kinase activity (LabChip EZ Reader mobility shift), PI3Kα. Particulars: kinase subtype PI3Kα (p110α/p85a). In kind it is biochemical. As for the experimental part:
as §1, §2, §3, §4, §5, §6, §7, §8

Another test concerns the target T3, PI3Kγ (Homo sapiens, UniProt P48736).
T3 construct: purchased Invitrogen PR8641C
Kind of test: In vitro kinase activity (LabChip EZ Reader mobility shift), PI3Kγ. In kind it is biochemical. Particulars: kinase subtype PI3Kγ (p110γ). On the procedure:
as §1, §2, §3, §4, §5, §6, §7, §8

A further test concerns the target T4, PI3Kδ (Homo sapiens, UniProt O00329).
T4 construct: purchased Millipore 14-604-K
Kind of test: In vitro kinase activity (LabChip EZ Reader mobility shift), PI3Kδ. In kind it is biochemical. To be noted: for IC50: kinase subtype PI3Kδ (p110δ/p85a). On the procedure: as §1, §2, §3, §4, §5, §6, §7, §8

This is an account of results in patent publication US10077258B2, “Substituted pyrimidine compounds as phosphatidylinositol 3-kinase delta inhibitor and use thereof” (NANJING SANHOME PHARMACEUTICAL CO., LTD., priority 2015, dated 2018).

Each structure is given as a SMILES string.

As a reminder, the IC50 is the concentration that inhibits the measured activity by half.

T3 sequence (P48736 whole entry): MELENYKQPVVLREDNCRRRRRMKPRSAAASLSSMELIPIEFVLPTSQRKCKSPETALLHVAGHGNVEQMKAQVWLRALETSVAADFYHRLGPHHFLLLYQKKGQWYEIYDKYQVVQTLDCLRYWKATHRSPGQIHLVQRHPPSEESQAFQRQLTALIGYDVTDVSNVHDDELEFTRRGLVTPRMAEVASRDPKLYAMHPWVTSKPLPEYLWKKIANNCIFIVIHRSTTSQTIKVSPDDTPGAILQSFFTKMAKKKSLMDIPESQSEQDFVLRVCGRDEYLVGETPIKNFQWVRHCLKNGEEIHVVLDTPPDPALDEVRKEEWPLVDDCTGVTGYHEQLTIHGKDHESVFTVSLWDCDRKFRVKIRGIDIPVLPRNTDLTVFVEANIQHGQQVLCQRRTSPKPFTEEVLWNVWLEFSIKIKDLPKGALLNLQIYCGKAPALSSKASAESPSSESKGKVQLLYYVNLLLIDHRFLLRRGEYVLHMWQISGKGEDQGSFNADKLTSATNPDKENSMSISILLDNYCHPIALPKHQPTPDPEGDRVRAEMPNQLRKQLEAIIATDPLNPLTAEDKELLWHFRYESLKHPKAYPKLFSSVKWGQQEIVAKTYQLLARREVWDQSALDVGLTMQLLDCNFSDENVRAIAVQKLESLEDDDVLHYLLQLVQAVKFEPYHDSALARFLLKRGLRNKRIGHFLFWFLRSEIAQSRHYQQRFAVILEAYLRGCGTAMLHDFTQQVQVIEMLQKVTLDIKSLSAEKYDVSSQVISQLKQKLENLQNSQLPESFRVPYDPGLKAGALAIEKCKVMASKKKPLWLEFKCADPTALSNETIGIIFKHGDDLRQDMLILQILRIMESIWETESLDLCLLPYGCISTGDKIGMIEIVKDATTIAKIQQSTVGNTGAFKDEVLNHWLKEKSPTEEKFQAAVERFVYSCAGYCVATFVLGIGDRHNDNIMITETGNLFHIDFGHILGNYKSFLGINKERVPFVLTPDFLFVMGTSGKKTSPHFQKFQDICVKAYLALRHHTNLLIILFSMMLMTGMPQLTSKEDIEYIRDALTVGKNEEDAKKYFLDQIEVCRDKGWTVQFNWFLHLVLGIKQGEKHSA
T4 sequence (O00329 whole entry): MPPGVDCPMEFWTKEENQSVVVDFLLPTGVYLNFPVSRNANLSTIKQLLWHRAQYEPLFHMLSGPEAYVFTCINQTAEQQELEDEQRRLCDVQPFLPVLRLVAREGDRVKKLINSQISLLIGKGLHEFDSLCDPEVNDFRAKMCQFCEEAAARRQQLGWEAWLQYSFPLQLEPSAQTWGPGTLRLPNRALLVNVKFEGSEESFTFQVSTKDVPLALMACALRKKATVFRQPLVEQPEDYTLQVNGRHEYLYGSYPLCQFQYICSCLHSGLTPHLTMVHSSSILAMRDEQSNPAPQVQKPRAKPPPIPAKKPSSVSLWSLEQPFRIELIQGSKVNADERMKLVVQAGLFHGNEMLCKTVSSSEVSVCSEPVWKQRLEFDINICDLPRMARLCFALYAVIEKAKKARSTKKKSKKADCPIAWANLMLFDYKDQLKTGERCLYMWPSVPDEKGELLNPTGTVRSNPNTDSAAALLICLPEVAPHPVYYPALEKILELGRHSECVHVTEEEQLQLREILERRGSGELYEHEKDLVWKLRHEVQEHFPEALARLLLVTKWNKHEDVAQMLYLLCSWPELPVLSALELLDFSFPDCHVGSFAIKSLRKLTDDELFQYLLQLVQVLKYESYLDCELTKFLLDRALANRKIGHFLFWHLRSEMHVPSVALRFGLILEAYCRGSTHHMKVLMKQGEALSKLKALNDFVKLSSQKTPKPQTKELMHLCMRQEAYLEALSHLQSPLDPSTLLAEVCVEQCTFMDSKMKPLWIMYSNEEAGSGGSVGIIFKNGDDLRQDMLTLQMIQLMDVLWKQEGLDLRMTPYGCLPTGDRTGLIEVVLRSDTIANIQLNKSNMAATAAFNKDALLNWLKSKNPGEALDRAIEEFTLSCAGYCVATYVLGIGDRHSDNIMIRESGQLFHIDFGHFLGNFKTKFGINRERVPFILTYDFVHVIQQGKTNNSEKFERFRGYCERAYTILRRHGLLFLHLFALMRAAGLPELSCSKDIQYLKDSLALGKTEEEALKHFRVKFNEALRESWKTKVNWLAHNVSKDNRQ
T4 sequence (P27986 whole entry partner): as the sequence (P27986 whole entry partner) above
T1 sequence (P42338 whole entry): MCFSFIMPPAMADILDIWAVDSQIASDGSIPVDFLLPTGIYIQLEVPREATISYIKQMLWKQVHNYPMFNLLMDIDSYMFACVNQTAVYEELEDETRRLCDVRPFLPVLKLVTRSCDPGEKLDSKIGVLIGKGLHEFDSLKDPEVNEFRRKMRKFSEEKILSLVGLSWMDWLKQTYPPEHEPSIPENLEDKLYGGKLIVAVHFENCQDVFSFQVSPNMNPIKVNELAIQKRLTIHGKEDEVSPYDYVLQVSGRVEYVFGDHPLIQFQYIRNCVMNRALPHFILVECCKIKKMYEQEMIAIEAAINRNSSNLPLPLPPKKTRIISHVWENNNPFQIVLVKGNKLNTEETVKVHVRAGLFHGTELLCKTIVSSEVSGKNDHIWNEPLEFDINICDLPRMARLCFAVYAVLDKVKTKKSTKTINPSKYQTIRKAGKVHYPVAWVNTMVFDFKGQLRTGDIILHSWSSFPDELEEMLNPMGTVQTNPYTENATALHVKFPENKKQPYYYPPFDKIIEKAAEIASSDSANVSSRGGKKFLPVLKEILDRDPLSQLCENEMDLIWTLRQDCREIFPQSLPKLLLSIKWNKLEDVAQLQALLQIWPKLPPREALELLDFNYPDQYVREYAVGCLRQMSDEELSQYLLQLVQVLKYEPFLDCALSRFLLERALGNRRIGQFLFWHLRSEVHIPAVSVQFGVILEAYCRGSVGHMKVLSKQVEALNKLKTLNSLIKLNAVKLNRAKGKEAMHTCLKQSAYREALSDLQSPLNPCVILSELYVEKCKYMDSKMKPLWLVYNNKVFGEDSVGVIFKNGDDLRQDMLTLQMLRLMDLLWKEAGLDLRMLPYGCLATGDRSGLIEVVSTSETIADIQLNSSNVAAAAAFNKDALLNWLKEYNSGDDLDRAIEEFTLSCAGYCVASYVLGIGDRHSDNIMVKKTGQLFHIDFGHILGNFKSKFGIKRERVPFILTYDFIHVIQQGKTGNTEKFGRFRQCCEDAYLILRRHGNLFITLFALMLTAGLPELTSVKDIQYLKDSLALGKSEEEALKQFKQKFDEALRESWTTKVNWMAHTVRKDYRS
T1 sequence (P27986 whole entry partner): as the sequence (P27986 whole entry partner) above

On to `CC(Nc1ncnc(N)c1C#N)c1c(-c2ccccc2)oc2c(F)cccc2c1=O` (stereo not drawn) [Example 7, 4-Amino-5-cyano-6-(1-(8-fluoro-4-oxo-2-phenyl-4H-chromen-3-yl)ethylamino) pyrimidine], for which the 50% inhibitory concentration (IC50) on PI3Kβ is more than 1000 nM; in the test on SU-DHL-5 lymphoma cells, 1.43 µM; at PI3Kα it was more than 1000 nM; at PI3Kγ, more than 1000 nM; on PI3Kδ, 5 nM.
Consider `N#Cc1c(N)nc(N)nc1NCc1c(-c2ccccc2)[nH]c2c(Cl)cccc2c1=O` [Example 18], for which the IC50 on PI3Kβ was determined as 99 nM; in the test with SU-DHL-5 lymphoma cells it was 3.4 µM; at PI3Kα, 336 nM; on PI3Kγ, 61 nM; at PI3Kδ, 2 nM.
With `N#Cc1c(N)ncnc1NCc1c(-c2ccccc2)[nH]c2ccccc2c1=O` [Example 15], the IC50 was more than 1000 nM on PI3Kβ; 4.94 µM with SU-DHL-5 lymphoma cells; more than 1000 nM on PI3Kα; more than 1000 nM on PI3Kγ; 21 nM on PI3Kδ.
For `CC(Nc1nc(N)nc(N)c1C#N)c1c(-c2ccccc2)n(C)c2c(Cl)cccc2c1=O` (stereo not drawn) [Example 27, 2,4-Diamino-5-cyano-6-((1-(8-chloro-1-methyl-4-oxo-2-phenyl-1,4-dihydroquinolin-3-yl)ethyl)amino)pyrimidine], the IC50 at PI3Kβ was 38 nM; at PI3Kα it was 39 nM; on PI3Kγ it was 11 nM; on PI3Kδ, 1.4 nM.
Regarding `CC(Nc1ncnc(N)c1C#N)c1c(-c2cc(F)cc(F)c2)c(=O)c2cc(F)ccc2n1C` (stereo not drawn) [Comparative Example 1, 4-Amino-5-cyano-6-(1-(3-(3,5-difluorophenyl)-6-fluoro-1-methyl-4-oxo-1,4-dihydroquinoline-2-yl)ethylamino)pyrimidine, reference compound], on PI3Kδ (PI3Kδ versus PI3Kα, PI3Kβ, PI3Kγ), the “selectivity (PI3Kδ over the other PI3K subtypes), in words” value is “poor”. Further, the half-maximal inhibitory concentration (IC50) at PI3Kδ amounted to 20 nM.
With `CCC(Nc1nc(N)nc(N)c1C#N)c1c(-c2ccccc2)oc2ccccc2c1=O` (stereo not drawn) [Example 32, 2,4-Diamino-5-cyano-6-(1-(4-oxo-2-phenyl-4H-chromen-3-yl)propylamino) pyrimidine], the IC50 on PI3Kβ is more than 1000 nM; on PI3Kα it was more than 1000 nM; on PI3Kγ, 673 nM; at PI3Kδ, 4.8 nM.
Regarding `CC(Nc1nc(N)nc(N)c1C#N)c1c(-c2ccccc2)[nH]c2c(Cl)cccc2c1=O` (stereo not drawn) [Example 23, 2,4-Diamino-5-cyano-6-((1-(8-chloro-4-oxo-2-phenyl-1,4-dihydroquinolin-3-yl)ethyl)amino)pyrimidine], the IC50 at PI3Kβ is 60 nM; at PI3Kα, 114 nM; on PI3Kγ it was 5.7 nM; on PI3Kδ it was 1.4 nM.
With `CCC(Nc1ncnc(N)c1C#N)c1c(-c2ccccc2)[nH]c2ccccc2c1=O` (stereo not drawn) [Example 13, 4-Amino-5-cyano-6-((1-(4-oxo-2-phenyl-1,4-dihydroquinolin-3-yl)propyl)amino)pyrimidine], the IC50 at PI3Kβ is more than 1000 nM; in the test with SU-DHL-5 lymphoma cells, 1.11 µM; at PI3Kα it was more than 1000 nM; at PI3Kγ it was more than 1000 nM; on PI3Kδ, 5.8 nM.
Regarding `CC(Nc1nc(N)nc(N)c1C#N)c1c(-c2cccc(F)c2)oc2ccccc2c1=O` (stereo not drawn) [Example 30, 2,4-Diamino-5-cyano-6-(1-(2-(3-fluorophenyl)-4-oxo-4H-chromen-3-yl)ethylamino) pyrimidine], the IC50 on PI3Kβ is more than 1000 nM; at PI3Kα it was more than 1000 nM; at PI3Kγ it was 155 nM; at PI3Kδ, 3.6 nM.
Regarding `CC(Nc1ncnc(N)c1C#N)c1c(-c2cccc(F)c2)n(C)c2ccccc2c1=O` (stereo not drawn) [Example 26, 4-Amino-5-cyano-6-((1-(1-methyl-4-oxo-2-(3-fluorophenyl)-1,4-dihydroquinolin-3-yl)ethyl)amino) pyrimidine], the IC50 on PI3Kβ was 972 nM; at PI3Kα it was more than 1000 nM; at PI3Kγ, 814 nM; on PI3Kδ it was 2.3 nM.
In the case of `CC(Nc1nc(N)nc(N)c1C#N)c1c(-c2ccccc2)oc2c(Cl)cccc2c1=O` (stereo not drawn) [Example 6, 2,4-Diamino-5-cyano-6-(1-(8-chloro-4-oxo-2-phenyl-4H-chromen-3-yl)ethylamino)pyrimidine], the IC50 at PI3Kβ was 881 nM; in the test on SU-DHL-5 lymphoma cells it was 1.23 µM; on PI3Kα it was more than 1000 nM; on PI3Kγ it was 84 nM; on PI3Kδ, 9.5 nM.
For `CC(Nc1ncnc(N)c1C#N)c1c(-c2ccccc2)oc2c(Cl)cccc2c1=O` (stereo not drawn) [Example 5, 4-Amino-5-cyano-6-(1-(8-chloro-4-oxo-2-phenyl-4H-chromen-3-yl)ethylamino) pyrimidine], the half-maximal inhibitory concentration (IC50) on PI3Kβ is more than 1000 nM; in the test on SU-DHL-5 lymphoma cells, 0.61 µM; on PI3Kα, more than 1000 nM; on PI3Kγ, more than 1000 nM; on PI3Kδ it was 11 nM.
As for `CC(Nc1nc(N)nc(N)c1C#N)c1c(-c2ccccc2)n(C)c2ccccc2c1=O` (stereo not drawn) [Example 25, 2,4-Diamino-5-cyano-6-((1-(1-methyl-4-oxo-2-phenyl-1,4-dihydroquinolin-3-yl)ethyl)amino) pyrimidine], the IC50 was found to be 113 nM at PI3Kβ, 127 nM at PI3Kα, 21 nM on PI3Kγ and 1.8 nM at PI3Kδ.
Regarding `CC(Nc1nc(N)nc(N)c1C#N)c1c(-c2ccccc2)oc2c(F)cccc2c1=O` (stereo not drawn) [Example 8, 2,4-Diamino-5-cyano-6-(1-(8-fluoro-4-oxo-2-phenyl-4H-chromen-3-yl)ethylamino) pyrimidine], the IC50 was 385 nM on PI3Kβ; 1.02 µM in the test with SU-DHL-5 lymphoma cells; more than 1000 nM at PI3Kα; 134 nM at PI3Kγ; 6.6 nM on PI3Kδ.
As for `CC(Nc1nc(N)nc(N)c1C#N)c1c(-c2ccccc2)[nH]c2ccccc2c1=O` (stereo not drawn) [Example 22, 2,4-Diamino-5-cyano-6-((1-(4-oxo-2-phenyl-1,4-dihydroquinolin-3-yl)ethyl)amino)pyrimidine], the IC50 on PI3Kβ was found to be 635 nM; at PI3Kα, 675 nM; at PI3Kγ, 60 nM; on PI3Kδ, 11 nM.
On to `N#Cc1c(N)nc(N)nc1NCc1c(-c2ccccc2)oc2ccccc2c1=O` [Example 2, 2,4-Diamino-5-cyano-6-(4-oxo-2-phenyl-4H-chromen-3-yl) methylaminopyrimidine], for which the IC50 at PI3Kδ is 13.5 nM.
